Results: publication PMC11131246, “Molecular determinants for brain targeting by peptides: a meta-analysis approach with experimental validation” (Fluids and Barriers of the CNS, 2024)
Read-outs that look alike come from different tables or passages of the source. Residues, ends and D or L forms follow the SMILES beside them.

Key:
[1] = Biodistribution of 67Ga-radiolabeled peptides; parameters: species or system mouse; settings: in vivo, iv, 100 uCi, total radioactivity, i.v. tail vein, mean ± SD, n = 3; for tissue uptake at 1 h: female, CD1, mouse, 1 h post injection
Experimental: All animal experiments were performed in compliance with national and EU legislation for good practices on laboratory animal science. The animals were housed in a temperature and humidity-controlled environment with a 12 h light/12 h dark schedule. Biodistribution of radiolabeled peptides was performed on 7 weeks old CD1 female mice.
Animals were intravenously injected into the tail vein with 100 µL of a 25 µM saline solution of the ^67Ga-peptide with a radioactivity around 100 µCi. The mice were euthanized by cervical dislocation at 2 min and 1 h after injection. The dose administered and the radioactivity in the euthanized animals was measured using a dose calibrator (Carpintec CRC-15W, Ramsey, USA). The difference between the radioactivity in the injected and the euthanized animals was assumed to be due to excretion. Brain and tissues of interest without previous perfusion were dissected, washed, and weighed, and their radioactivity was measured using a γ counter (Hidex AMG, Hidex, Turku, Finland). The uptake in the brain and tissues of interest was calculated and expressed as a percentage of injected radioactivity dose per gram of tissue (% ID/g).

HBEC-5i cells = assay: Translocation across in vitro BBB model (HBEC-5i monolayer, transwell); type: in vitro ADME, human; settings: HBEC-5i monolayer on AF-coated PET transwell inserts (1.0 µm pores), 8 days, CF-peptide 5.0 µM in DMEM:F12 without phenol red added to apical side, 24 h, fluorescence, plate reader, mean ± SD, triplicates of three independent experiments
Experimental: Throughout 8 days, medium was changed every other day. On the day of the experiment, cells were washed twice with 1X PBS (137.0 mM NaCl, 2.7 mM KCl, 10.0 mM Na2HPO4, and 1.8 mM KH2PO4), and once with DMEM:F12 without phenol red. Then, CF-peptides (5.0 μM, in DMEM:F12 without phenol red) were added to the apical side of the in vitro BBB model and incubated for 24 h. Finally, samples from the apical and basolateral side were collected and fluorescence intensity analyzed using a Varioskan^TM LUX multimode microplate reader (Thermo Fisher, Spain). […] Experiments were performed in triplicates on different days using three independently grown cell cultures. Seeking experimental support for our hypothesis, we have synthesized and tested in vitro the activity of ten peptides (Table 1), selected among the 14 BBBpS entries by their lowest S score in an OLS ranking.

[2] = Cytotoxicity, CellTiter-Blue cell viability assay; type: cell-based; settings: human; CellTiter-Blue, peptides 0.05–100.0 µM, 24 h; triplicates, three independent cultures; read-out: Cytotoxicity IC50 Hs68
Experimental: (§1) Peptide cytotoxicity was determined using the CellTiter-Blue® cell viability assay, following a described protocol. Briefly, all cell lines were carefully harvested with trypsin–EDTA and seeded 10.000–20.000 cells/100 μL into 96-well clear flat-bottomed polystyrene plates (Corning, USA) for 24 h. After medium removal, cells were washed twice with 1X PBS, and 100 µL of previously diluted peptides (range from 0.05–100.0 µM) in the respective medium were added to cells. Then, after 24 h, cells were washed twice with 1X PBS and 20 µL of CellTiter-Blue® Reagent (diluted in 100 µL of medium) was added to each well and incubated for 3 h in culturing conditions. The fluorescence intensity was measured using Varioskan™ LUX multimode microplate reader.
(§2) IC50 values were determined using GraphPad Prism 7.0 software using a log(inhibitor) versus normalized response. Experiments were performed in triplicates on different days using three independently grown cell cultures.

[3] = Cytotoxicity, CellTiter-Blue cell viability assay; type: cell-based; settings: human; CellTiter-Blue, peptides 0.05–100.0 µM, 24 h; triplicates, three independent cultures; read-out: Cytotoxicity IC50 HeLa
Experimental: as §1, §2

[4] = Analytical RP-HPLC retention time (used as indication of hydrophobicity); type: physicochemical; settings: analytical reverse phase HPLC, UV chromatogram; free and CF-labelled peptides
[5] = Cytotoxicity, CellTiter-Blue cell viability assay; type: cell-based; settings: human; CellTiter-Blue, peptides 0.05–100.0 µM, 24 h; triplicates, three independent cultures; read-out: Cytotoxicity IC50 HEK-293
Experimental: as §1, §2

[6] = Cytotoxicity, CellTiter-Blue cell viability assay; type: cell-based; settings: human; read-out: Cytotoxicity IC50 HBEC-5i
Experimental: as §1, §2

[7] = Cytotoxicity, CellTiter-Blue cell viability assay; type: cell-based; settings: human; CellTiter-Blue, peptides 0.05–100.0 µM, 24 h; triplicates, three independent cultures
Experimental: as §1, §2

Compound `CC[C@H](C)[C@H](NC(=O)CNC(=O)[C@H](CCCNC(=N)N)NC(=O)[C@H](Cc1ccc(O)cc1)NC(=O)[C@H](CS)NC(=O)[C@@H](NC(=O)[C@H](CCCNC(=N)N)NC(=O)[C@H](Cc1ccccc1)NC(=O)[C@H](CS)NC(=O)[C@H](Cc1c[nH]c2ccccc12)NC(=O)[C@@H](N)CCCCN)C(C)C)C(=O)N[C@@H](CS)C(=O)N[C@@H](Cc1ccc(O)cc1)C(=O)N[C@@H](CCCNC(=N)N)C(=O)N[C@@H](CCCNC(=N)N)C(=O)N[C@@H](CS)C(=O)N[C@@H](CCCNC(=N)N)C(N)=O` [non-BBBpS_2] (H-KWCFRVCYRGICYRRCR-NH2) has a tissue uptake at 1 h ([1]; brain without perfusion, CD1 female mice, γ counter, read-out: Tissue distribution, Brain (brain uptake)) of 0.13 ± 0.03 %ID/g, a tissue uptake at 1 h ([1]; liver, CD1 mice, read-out: Tissue distribution, Liver) of 22.8 ± 10.1 %ID/g and a tissue uptake at 2 min ([1]; mouse, brain without perfusion, 2 min post injection, CD1 female mice, 100 µL of 25 µM 67Ga-peptide, γ counter, read-out: Tissue distribution, Brain (brain uptake)) of 0.27 ± 0.04 %ID/g. For the same compound, the “Translocation (%) HBEC-5i” value (HBEC-5i cells) was 2.6 ± 1.2%, the IC50 at 24 h [2] was 26.4 ± 2.9 µM and the IC50 at 24 h [3] was 39.4 ± 1.8 µM. The “HPLC tR” value [4] was 6.81 min, the IC50 at 24 h [5] was 14.7 ± 1.4 µM and the IC50 at 24 h [6] was 20.7 ± 1 µM. It also gave an IC50 at 24 h [7] of 26.9 ± 3 µM.
